In ChEMBL document CHEMBL1201862, “PubChem BioAssay data set” (2004):
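All cell lines were grown in 96-well plates and treated with compound for 48 hours. At the GI50, growth is halved.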 Active and inactive are the calls of the source. Rule as the data show it: active = GI50 up to about 1.1 µM and inactive = higher.

Legend:
Assay in all cases: NCI-60 cell line screen, 48 h
HL-60 = tested on: HL-60
HCT-116 = tested on: HCT-116
HCC 2998 = tested on: HCC 2998
HCT-15 = tested on: HCT-15
EKVX = tested on: EKVX
OVCAR-8 = tested on: OVCAR-8
NCI-H522 = tested on: NCI-H522
SF-539 = tested on: SF-539
Hs-578T = tested on: Hs-578T
K562 = tested on: K562
UACC-62 = tested on: UACC-62
SNB-75 = tested on: SNB-75
SF-295 = tested on: SF-295
Malme-3M = tested on: Malme-3M
CCRF-CEM = tested on: CCRF-CEM
MDA-MB-231 = tested on: MDA-MB-231
NCI-H23 = tested on: NCI-H23
NCI/ADR-RES = tested on: NCI/ADR-RES
NCI-H460 = tested on: NCI-H460
NCI-H226 = tested on: NCI-H226

Structure (SMILES) | GI50 (HL-60) | GI50 (HCT-116) | GI50 (HCC 2998) | GI50 (HCT-15) [µM] | GI50 (EKVX) | GI50 (OVCAR-8) | GI50 (NCI-H522) | GI50 (SF-539) | GI50 (Hs-578T) | GI50 (K562) | GI50 (UACC-62) | GI50 (SNB-75) | GI50 (SF-295) | GI50 (Malme-3M) | GI50 (CCRF-CEM) | GI50 (MDA-MB-231) | GI50 (NCI-H23) | GI50 (NCI/ADR-RES) | GI50 (NCI-H460) | GI50 (NCI-H226)
O=c1oc2ccc3ccccc3c2cc1-c1nc2ccccc2o1 | 40.6 µM (inactive) | 21.7 µM (inactive) | 61.1 µM (inactive) | 36.6 | 20.6 µM (inactive) | 23.2 µM (inactive) | 21.3 µM (inactive) | 15.8 µM (inactive) | 21.4 µM (inactive) | 58.3 µM (inactive) | 36.1 µM (inactive) | 17.5 µM (inactive) | 26.2 µM (inactive) | 13.7 µM (inactive) | 37.7 µM (inactive) | 16.8 µM (inactive) | 27.4 µM (inactive) | 20 µM (inactive) | 27.5 µM (inactive) | 22.5 µM (inactive)
COc1c2c(c(OC)c3c1c(=O)c1ccccc1n3C)OCO2 | 3.18 µM (inactive) | 6.15 µM (inactive) | 5.2 µM (inactive) | 26.1 | 35.4 µM (inactive) | 27.1 µM (inactive) | 2.23 µM (inactive) | 5.31 µM (inactive) | 4.79 µM (inactive) | 0.703 µM (active) | 9.06 µM (inactive) | 6.68 µM (inactive) | 14.1 µM (inactive) | – | 4.35 µM (inactive) | 19.3 µM (inactive) | 10.6 µM (inactive) | 44.9 µM (inactive) | 8.49 µM (inactive) | > 50.4 µM (inactive)
NC(Cc1ccc(O)cn1)C(=O)NC(C(=O)O)c1ccccc1 (stereo not drawn) | > 100 µM (inactive) | > 100 µM (inactive) | > 100 µM (inactive) | > 100 | > 100 µM (inactive) | > 100 µM (inactive) | > 100 µM (inactive) | > 100 µM (inactive) | > 100 µM (inactive) | > 100 µM (inactive) | – | > 100 µM (inactive) | > 100 µM (inactive) | > 100 µM (inactive) | > 100 µM (inactive) | > 100 µM (inactive) | > 100 µM (inactive) | > 100 µM (inactive) | > 100 µM (inactive) | > 100 µM (inactive)
C=C1CC(Cn2ccc(=O)[nH]c2=O)(c2ccc(OC)cc2)OC1=O (stereo not drawn) | 2.35 µM (inactive) | 6.15 µM (inactive) | 13 µM (inactive) | 14.8 | 19.5 µM (inactive) | 20.1 µM (inactive) | 1.94 µM (inactive) | 18.6 µM (inactive) | 18.1 µM (inactive) | 3.2 µM (inactive) | 14.3 µM (inactive) | > 10 µM (inactive) | 34.7 µM (inactive) | 10.1 µM (inactive) | 2.88 µM (inactive) | 16.6 µM (inactive) | 11.2 µM (inactive) | 16 µM (inactive) | 40.6 µM (inactive) | 16.3 µM (inactive)
O=C(CCCN1CCC2(CC1)C(=O)NC(=O)N2c1ccccc1)c1ccc(F)cc1 | > 100 µM (inactive) | > 100 µM (inactive) | > 100 µM (inactive) | > 100 | > 100 µM (inactive) | > 100 µM (inactive) | 8.73 µM (inactive) | > 100 µM (inactive) | > 100 µM (inactive) | > 10 µM (inactive) | > 100 µM (inactive) | > 100 µM (inactive) | > 100 µM (inactive) | > 100 µM (inactive) | > 100 µM (inactive) | > 100 µM (inactive) | > 100 µM (inactive) | > 100 µM (inactive) | > 100 µM (inactive) | > 100 µM (inactive)
Cc1ccc2cccc3c2c1CC1(C3=O)S(=O)(=O)OCCOS1(=O)=O | > 100 µM (inactive) | > 100 µM (inactive) | > 100 µM (inactive) | > 100 | > 100 µM (inactive) | > 100 µM (inactive) | > 100 µM (inactive) | > 100 µM (inactive) | > 100 µM (inactive) | > 100 µM (inactive) | > 100 µM (inactive) | > 100 µM (inactive) | > 100 µM (inactive) | > 100 µM (inactive) | > 100 µM (inactive) | > 100 µM (inactive) | > 100 µM (inactive) | > 100 µM (inactive) | > 100 µM (inactive) | > 100 µM (inactive)
CC(C)=CCNc1ncnc2c1ncn2CCC(=O)OC(C)(C)C | > 100 µM (inactive) | > 100 µM (inactive) | > 100 µM (inactive) | > 100 | – | > 100 µM (inactive) | > 100 µM (inactive) | > 100 µM (inactive) | 12.4 µM (inactive) | 18.4 µM (inactive) | 38.3 µM (inactive) | 13 µM (inactive) | > 100 µM (inactive) | > 100 µM (inactive) | 22 µM (inactive) | > 100 µM (inactive) | > 100 µM (inactive) | 42.9 µM (inactive) | > 100 µM (inactive) | > 100 µM (inactive)
CNC(=O)c1nnn(C2CCCCC2)c1S | > 100 µM (inactive) | > 100 µM (inactive) | > 100 µM (inactive) | > 100 | > 100 µM (inactive) | > 100 µM (inactive) | > 100 µM (inactive) | 6.11 µM (inactive) | > 100 µM (inactive) | > 100 µM (inactive) | > 100 µM (inactive) | > 100 µM (inactive) | > 100 µM (inactive) | > 100 µM (inactive) | > 100 µM (inactive) | > 100 µM (inactive) | > 100 µM (inactive) | > 100 µM (inactive) | > 100 µM (inactive) | > 100 µM (inactive)
Cc1ccc2nc(-c3ccc(N)c(I)c3)sc2c1 | 12.9 µM (inactive) | 54.6 µM (inactive) | 6.75 µM (inactive) | 6.11 | 29 µM (inactive) | 67.5 µM (inactive) | 18 µM (inactive) | 23.3 µM (inactive) | 31 µM (inactive) | 21.3 µM (inactive) | 32.5 µM (inactive) | 41.5 µM (inactive) | 19.1 µM (inactive) | 36.1 µM (inactive) | 6.21 µM (inactive) | 14.3 µM (inactive) | – | 72.3 µM (inactive) | 18.2 µM (inactive) | 16 µM (inactive)
CC1(C)Oc2ccc3c(=O)cc(-c4ccccc4)oc3c2C1C(=O)O (stereo not drawn) | > 100 µM (inactive) | > 100 µM (inactive) | > 100 µM (inactive) | > 100 | > 100 µM (inactive) | > 100 µM (inactive) | > 100 µM (inactive) | > 100 µM (inactive) | > 100 µM (inactive) | > 100 µM (inactive) | > 100 µM (inactive) | – | > 100 µM (inactive) | > 100 µM (inactive) | > 100 µM (inactive) | > 100 µM (inactive) | > 100 µM (inactive) | > 100 µM (inactive) | – | > 100 µM (inactive)
O=C(/C=C1\Nc2ccc([N+](=O)[O-])cc2N\C1=C/C(=O)c1ccc(F)cc1)c1ccc(F)cc1 | 20.7 µM (inactive) | 32.5 µM (inactive) | 80 µM (inactive) | 64.7 | 45.9 µM (inactive) | > 100 µM (inactive) | 10.5 µM (inactive) | 19.6 µM (inactive) | 14.9 µM (inactive) | 22.2 µM (inactive) | 29.4 µM (inactive) | 15.7 µM (inactive) | 14.9 µM (inactive) | > 100 µM (inactive) | 8.81 µM (inactive) | 16 µM (inactive) | 19.9 µM (inactive) | 82 µM (inactive) | 46.3 µM (inactive) | 27.1 µM (inactive)
COC(=O)[C@]12CC[C@H]3CN(C(=O)OCc4ccccc4)[C@H]([C@H]31)[C@H](c1ccco1)N2S(=O)(=O)c1ccc(C)cc1 | 16.3 µM (inactive) | 14.9 µM (inactive) | 19.5 µM (inactive) | 15.4 | 44.4 µM (inactive) | 28.9 µM (inactive) | 19.2 µM (inactive) | 33.1 µM (inactive) | 73.5 µM (inactive) | 16.9 µM (inactive) | 15 µM (inactive) | – | 25.9 µM (inactive) | 21.3 µM (inactive) | 11.4 µM (inactive) | 35 µM (inactive) | 24.7 µM (inactive) | 23.5 µM (inactive) | 26.5 µM (inactive) | 27.5 µM (inactive)
O=S(=O)(O)CCCC1S(=O)(=O)OCCOS1(=O)=O | > 100 µM (inactive) | > 100 µM (inactive) | > 100 µM (inactive) | > 100 | > 100 µM (inactive) | > 100 µM (inactive) | > 100 µM (inactive) | > 100 µM (inactive) | > 100 µM (inactive) | – | > 100 µM (inactive) | 0.745 µM (active) | > 100 µM (inactive) | > 100 µM (inactive) | – | > 100 µM (inactive) | > 100 µM (inactive) | > 100 µM (inactive) | > 100 µM (inactive) | > 100 µM (inactive)
FC(F)(F)c1ccc2c(c1)nc(-c1ccccc1)n2CC1CCCN2CCCCC12 (stereo not drawn) | 14.3 µM (inactive) | 16.4 µM (inactive) | 16 µM (inactive) | 21.9 | 29.2 µM (inactive) | 18.6 µM (inactive) | 14.2 µM (inactive) | 16.4 µM (inactive) | 16.8 µM (inactive) | 21.1 µM (inactive) | 16.6 µM (inactive) | 19.3 µM (inactive) | 15.1 µM (inactive) | 13.7 µM (inactive) | – | 13.6 µM (inactive) | – | 16.3 µM (inactive) | 19.6 µM (inactive) | 20.8 µM (inactive)
O=[N+]([O-])c1cc(-[n+]2cc([O-])on2)ccc1F | 22.6 µM (inactive) | 15.3 µM (inactive) | 14.4 µM (inactive) | 20.3 | 18 µM (inactive) | 16.4 µM (inactive) | 9.02 µM (inactive) | – | 26.7 µM (inactive) | 34.4 µM (inactive) | 17.1 µM (inactive) | 13.7 µM (inactive) | 17.3 µM (inactive) | 14.7 µM (inactive) | 11.8 µM (inactive) | 18.7 µM (inactive) | 18.2 µM (inactive) | 21.2 µM (inactive) | 18.5 µM (inactive) | 23.4 µM (inactive)
